The text below walks through data of patent US20240002388A1, “PYRIMIDINONE COMPOUNDS AND USES THEREOF” (HUTCHISON MEDIPHARMA LIMITED, priority 2020, published 2024).

Structures are written as SMILES.

The test system of one experiment is L929 cell line (mouse fibroblastoma cell line). Nature of the experiment: L929 cell viability assay (mTNF-α + Z-VAD-FMK induced necroptosis). The class given is cell-based. The note with it: L929 cells, mTNF-α 0.1 μg/mL + Z-VAD-FMK 5 μM, 20 hours, CellTiter-Glo. As to the method:
L929 cell line (mouse fibroblastoma cell line): purchased from ATCC (American Type Culture Collection) Cell Bank, cultured in 5% CO2, 37° C. incubator, and MEM medium which contains L-Glutamine, with 10% FBS was used. • MEM medium: GIBCO, Cat #11095080; • Fetal bovine serum (FBS): GIBCO, Cat #10099-141C; • Dimethyl sulfoxide (DMSO): Sigma, Cat #D2650; • 0.25% Trypsin-EDTA: GIBCO, Cat #25200072; • Recombinant Mouse TNF-alpha Protein (mTNF-α): R&D system, Cat #410-MT-050; • Pan-Caspase inhibitor (Z-VAD-FMK): Selleckchem, Cat #S7023; • CellTiter-Glo 2.0 Cell Viability Assay kit: Promega, Cat #G9242; • Microwell plate reader: Envision, Perkin Elmer; • 96-well plate: Corning, Cat #3917.
The L929 cells at the logarithmic phase were taken out, and the supernatant was discarded. After trypsinization and cell shedding, 10% FBS-containing medium was added for neutralization, and the supernatant was discarded after centrifugation. The cells were re-suspended using 10% FBS-containing medium, adjusted to 7×10^4 cells/ml, added to 96-well microplate at 70 μL/well, i.e., 4.9×10^3 cells/well. Then the plate was incubated in a 5% CO2, 37° C. cell incubator overnight.
After incubating overnight, the 96-well plate was taken out, the medium was discarded, and the plate was washed with 1% FBS-containing MEM medium. Then 1% FBS-containing MEM medium was added at 70 μL/well, and the plate was cultured in a 5% CO2, 37° C. cell incubator. After incubating for 1 hour, the test compound was diluted to the corresponding concentrations using DMSO with 3-fold serial dilution, then the corresponding concentration of DMSO diluted solution was diluted into 1% FBS-containing MEM medium, and 10 μL/well of the diluted test compound with different concentrations (final concentrations of test compound were 10, 3.33, 1.11, 0.37, 0.12, 0.04, 0.014 and 0.005 μM, while final concentration of DMSO was 0.3%) or 10 μL/well control solution (3% DMSO) were added to the cell culture system respectively, with the total volume being 80 μL/well. Then 10 μL of Z-VAD-FMK solution diluted with 1% FBS-containing MEM medium (final concentration of 5 μM) or 10 μL of control solution (2.5% DMSO) was added to each well, with the total volume being 90 μL/well. The plate was incubated in a 5% CO2, 37° C. cell culture incubator for 1 hour.
After incubating for 1 hour, 10 μL of recombinant mouse TNF-α protein solution diluted with 1% FBS-containing MEM medium (final concentration of 0.1 μg/mL) or 10 μL control solution (1% FBS-containing MEM medium) was added to each well. The plate was incubated in a 5% CO2, 37° C. cell culture incubator for 20 hours.
The cell culture plate was taken out from the incubator, and left to stand at room temperature for 30 minutes. Meanwhile, CellTiter-Glo viability assay kit was put from freezer to room temperature, and 50 μL of CellTiter-Glo reagent was added to all wells, the plate was shaken for 1 minutes, protected from light at room temperature for 10 minutes then read the plate on Envision to get the luminescence signal.
The 96-well plate in the dark was taken out, and the chemiluminescence was determined using the Envision microwell plate reader as the signal value of each well.
The mean signal value of the wells of the mixed solution of recombinant mouse TNF-alpha protein (final concentration of 0.1 μg/mL) and Pan-Caspase inhibitor (final concentration of 5 μM) was used as the lower value, and the mean signal value of the wells without stimulation was used as the upper value. According to the signal value of each well, the inhibition rate of each concentration of every compound was calculated, and the IC50 value of compound was obtained by Model 205 in XL-Fit 5.3 software (ID Business Solutions Limited).
Inhibition rate %=[(Luminescence readout of treated compound−Luminescence readout of positive control)/(Luminescence readout of negative control−Luminescence readout of positive control)]×100%, wherein
For orientation: IC50 means the concentration that gives 50% inhibition. Turning to `CC(C)n1ncc2cnc(C(=O)NC3(c4ccc(-c5cncn([C@H]6C[C@@H](F)C6)c5=O)cc4)CC3)nc21` [Compound 88, N-(1-(4-(1-(cis-3-fluorocyclobutyl)-6-oxo-1,6-dihydropyrimidin-5-yl)phenyl)cyclopropyl)-1-i-propyl-1H-pyrazolo[3,4-d]pyrimidine-6-carboxamide], the IC50 stood at 335 nM.

The experiment is the same for the next values; noted with them: Mus musculus, L929, 20 h, L929 cells, mTNF-α 0.1 μg/mL + Z-VAD-FMK 5 μM, CellTiter-Glo.
With `CC(C)Cn1cncc(-c2ccc(C3(NC(=O)c4ncc5cnn(C(C)C)c5n4)CC3)cc2)c1=O` [Compound 45], the IC50 is 58 nM. The same measure, in the same setting: next, `CC(C)n1ncc2cnc(C(=O)NC3(c4ccc(-c5cnc(N)n(C)c5=O)cc4)CC3)nc21` [Compound 30]: 2590 nM.

`CC(C)n1ncc2cnc(C(=O)NC3(c4ccc(-c5cncn(CC6CC6)c5=O)c(F)c4F)CC3)nc21` [Compound 95]: the IC50 is 145 nM.

With `CC(C)n1ncc2cnc(C(=O)NC3(c4ccc(-c5cncn(C)c5=O)cc4F)CC3)nc21` [Compound 26], the IC50 is 846 nM. The same measure, in the same setting: next, `CC(C)n1ncc2cnc(C(=O)NC3(c4ccc(-c5cncn(C6CC6)c5=O)cc4)CC3)nc21` [Compound 12]: 1020 nM. For `CC(C)n1ncc2cnc(C(=O)NC3(c4ccc(-c5cncn(C6CCOC6)c5=O)cc4)CC3)nc21` (stereo in doubt) [Compound 81, (S)-1-i-propyl-N-(1-(4-(6-oxo-1-(tetrahydrofuran-3-yl)-1,6-dihydropyrimidin-5-yl)phenyl)cyclopropyl)-1H-pyrazolo[3,4-d]pyrimidine-6-carboxamide], the IC50 was determined as 258 nM. Still for that read-out and setting: with `CC(C)n1ncc2cnc(C(=O)NC3(c4ccc(-c5cncn(C6CCC6)c5=O)cc4)CC3)nc21` [Compound 42] the figure was 119 nM; with `O=C(NC1(c2ccc(-c3cncn(CC4CC4)c3=O)cc2)CC1)c1ncc2cnn(CC3CC3)c2n1` [Compound 64], 79 nM. Same read-out and setting: next, `CC(C)n1cncc(-c2ccc(C3(NC(=O)c4ncc5cnn([C@@H](C)C6CC6)c5n4)CC3)cc2)c1=O` [Compound 90, (S)-1-(1-cyclopropylethyl)-N-(1-(4-(1-i-propyl-6-oxo-1,6-dihydropyrimidin-5-yl)phenyl)cyclopropyl)-1H-pyrazolo[3,4-d]pyrimidine-6-carboxamide]: 12 nM.

In the case of `CC(C#N)n1cncc(-c2ccc(C3(NC(=O)c4ncc5cnn(C(C)C)c5n4)CC3)cc2)c1=O` (stereo in doubt) [Compound 83, (S)—N-(1-(4-(1-(1-cyanoethyl)-6-oxo-1,6-dihydropyrimidin-5-yl)phenyl)cyclopropyl)-1-i-propyl-1H-pyrazolo[3,4-d]pyrimidine-6-carboxamide], the IC50 was found to be 199 nM. On the same count and under the same terms, with `CC(C)n1cncc(-c2ccc(C3(NC(=O)c4nc5n(n4)[C@H](c4ccccc4)CC5)CC3)cc2)c1=O` [Compound 16] the figure was 7 nM; with `CC(C)n1ncc2cnc(C(=O)NC3(c4ccc(-c5cncn([C@H](C)C6CC6)c5=O)cc4)CC3)nc21` [Compound 84, (R)—N-(1-(4-(1-(1-cyclopropylethyl)-6-oxo-1,6-dihydropyrimidin-5-yl)phenyl)cyclopropyl)-1-i-propyl-1H-pyrazolo[3,4-d]pyrimidine-6-carboxamide], 7 nM; with `Cn1cncc(-c2ccc(C3(NC(=O)c4ncc5cnn(-c6ccccc6)c5n4)CC3)cc2)c1=O` [Compound 4], 721 nM.

With `CC(C)n1ncc2cnc(C(=O)NC3(c4ccc(-c5cncn([C@H]6C[C@H](F)C6)c5=O)cc4)CC3)nc21` [Compound 87, N-(1-(4-(1-(trans-3-fluorocyclobutyl)-6-oxo-1,6-dihydropyrimidin-5-yl)phenyl)cyclopropyl)-1-i-propyl-1H-pyrazolo[3,4-d]pyrimidine-6-carboxamide], the IC50 came out at 393 nM. Still for that read-out and setting: next, `CC[C@@H](C)n1cncc(-c2ccc(C3(NC(=O)c4ncc5cnn(C(C)C)c5n4)CC3)cc2)c1=O` [Compound 44]: 28 nM; `CC(C)n1ncc2cnc(C(=O)NC3(c4ccc(-c5cncn([C@H]6C[C@@H]6F)c5=O)cc4)CC3)nc21` [Compound 67]: 5650 nM. The same measure, in the same setting: with `CC(C)n1ncc2cnc(C(=O)NC3(c4ccc(-c5cncn(C6CCOC6)c5=O)cc4)CC3)nc21` (stereo in doubt) [Compound 80, (R)-1-i-propyl-N-(1-(4-(6-oxo-1-(tetrahydrofuran-3-yl)-1,6-dihydropyrimidin-5-yl)phenyl)cyclopropyl)-1H-pyrazolo[3,4-d]pyrimidine-6-carboxamide] the figure was 297 nM; with `CC(C)n1cncc(-c2ccc(C3(NC(=O)c4ncc5cnn(-c6ccccc6)c5n4)CC3)cc2)c1=O` [Compound 19], 61 nM; with `CC(C)n1ncc2cnc(C(=O)NC3(c4ccc(-c5cncn(CC6CC6)c5=O)c(F)c4)CC3)nc21` [Compound 75], 41 nM. Still for that read-out and setting: next, `CC(C)n1ncc2cnc(C(=O)NC3(c4cc(F)c(-c5cncn(CC6CC6)c5=O)cc4F)CC3)nc21` [Compound 94]: 50 nM; `CC(C)n1ncc2cnc(C(=O)NC3(c4ccc(-c5cncn(C6CCOCC6)c5=O)cc4)CC3)nc21` [Compound 77]: 151 nM. In the case of `Cn1cncc(-c2ccc(C3(NC(=O)c4ncn(Cc5ccccc5)n4)CC3)cc2)c1=O` [Compound 8], the IC50 is 1760 nM.

Consider `CC(C)n1cncc(-c2ccc(C3(NC(=O)c4ncc5cnn(C(C)C)c5n4)CC3)c(F)c2F)c1=O` [Compound 93], for which the IC50 worked out at 148 nM.

For the compound `CC(C)n1cncc(-c2ccc(C3(NC(=O)c4ncc5cnn(C(C)C)c5n4)CC3)c(F)c2Cl)c1=O` [Compound 91], the IC50 turned out to be 786 nM. Still for that read-out and setting: with `CC(C)n1ncc2cnc(C(=O)NC3(c4ccc(-c5cncn([C@@H](C)C(F)(F)F)c5=O)cc4)CC3)nc21` [Compound 40] the figure was 109 nM; with `CC(C)n1ncc2cnc(C(=O)NC3(c4ccc(-c5cncn([C@H](C)C(F)(F)F)c5=O)cc4F)CC3)nc21` (stereo in doubt) [Compound 46], 19 nM; with `C[C@H](c1ccccc1)n1cnc(C(=O)NC2(c3ccc(-c4cncn(C)c4=O)cc3)CC2)n1` [Compound 55, (R)—N-(1-(4-(1-methyl-6-oxo-1,6-dihydropyrimidin-5-yl)phenyl)cyclopropyl)-1-(1-phenylethyl)-1H-1,2,4-triazole-3-carboxamide], 259 nM.

`CC(C)n1cncc(-c2ccc(C3(NC(=O)c4ncc5cnn(C(C)C)c5n4)CC3)c(F)c2)c1=O` [Compound 34]: the IC50 is 78 nM. Still for that read-out and setting: with `CC(C)n1cncc(-c2ccc(C3(NC(=O)c4ncc5cnn(CC6CC6)c5n4)CC3)c(F)c2)c1=O` [Compound 72] the figure was 16 nM; with `C[C@H](n1cncc(-c2ccc(C3(NC(=O)c4ncc5cnn(CC6CC6)c5n4)CC3)c(F)c2)c1=O)C(F)(F)F` [Compound 71], 20 nM. Turning to `CC(C)n1cncc(-c2ccc(C3(NC(=O)c4ncn(Cc5ccccc5)n4)CC3)cc2)c1=O` [Compound 17], the IC50 is 25 nM.

Consider `CC(C)n1ncc2cnc(C(=O)NC3(c4ccc(-c5cncn(CC6(C)CC6)c5=O)cc4)CC3)nc21` [Compound 86], for which the 50% inhibitory concentration (IC50) turned out to be 19 nM.

Consider `CC(C)n1ncc2cnc(C(=O)NC3(c4ccc(-c5cncn([C@@H](C)C6CC6)c5=O)cc4)CC3)nc21` [Compound 85, (S)—N-(1-(4-(1-(1-cyclopropylethyl)-6-oxo-1,6-dihydropyrimidin-5-yl)phenyl)cyclopropyl)-1-i-propyl-1H-pyrazolo[3,4-d]pyrimidine-6-carboxamide], for which the IC50 came out at 13 nM.
